Reference: patent EP4603105A1, “PHARMACEUTICAL COMPOSITION CONTAINING CYCLIC COMPOUND HAVING SELECTIVE KRAS INHIBITORY EFFECT AGAINST HRAS AND NRAS” (CHUGAI SEIYAKU KABUSHIKI KAISHA, priority 2022, dated 2024)
pIC50, pKd: −log10 of the molar value. Like-named read-outs stand apart in the source and are kept apart here.

Columns and labels:
[1] = target: HRAS wild-type protein (Homo sapiens, UniProt P01112); assay: Binding to HRAS by surface plasmon resonance (SPR), KD and KD ratio to KRAS
Method in brief: (§1)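 Biotinylated GDP-bound RAS was captured at about 100–300 RU. Running buffer: HBS pH 7.4, 10 mM MgCl2, 10 µM GDP, 1 mM DTT, 0.01% Tween 20, 4% DMSO.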

[2] = target: GDP-bound NRAS wild-type protein (Homo sapiens, UniProt P01111); assay: Binding to NRAS by surface plasmon resonance (SPR), KD and KD ratio to KRAS
Sequence of GDP-bound NRAS wild-type protein (P01111 whole entry): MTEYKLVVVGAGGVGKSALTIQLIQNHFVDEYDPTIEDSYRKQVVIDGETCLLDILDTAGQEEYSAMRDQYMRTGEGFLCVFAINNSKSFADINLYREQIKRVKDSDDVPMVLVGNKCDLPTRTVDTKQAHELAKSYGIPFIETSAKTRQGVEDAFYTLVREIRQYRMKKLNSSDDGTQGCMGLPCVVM
Method in brief: as §1

[3] = test system: human lung cancer strain NCI-H441; assay: NCI-H441 cell proliferation inhibitory activity (CellTiter-Glo, 4 days); format: cell-based; conditions: read-out: NCl-H441 IC50
Method in brief: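 Step one: dispense the test compound in serial DMSO dilutions. Step three: add the reagent and measure […].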

[4] = target: GDP-bound KRAS wild-type protein (Homo sapiens, UniProt P01116); assay: Binding to KRAS by surface plasmon resonance (SPR), dissociation constant KD
Sequence of GDP-bound KRAS wild-type protein (P01116 1-188 isoform P01116-2): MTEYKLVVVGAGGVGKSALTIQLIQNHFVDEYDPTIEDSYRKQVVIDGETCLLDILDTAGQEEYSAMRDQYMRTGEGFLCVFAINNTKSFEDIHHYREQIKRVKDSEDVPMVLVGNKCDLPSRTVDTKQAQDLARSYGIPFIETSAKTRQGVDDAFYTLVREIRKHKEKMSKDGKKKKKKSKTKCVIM
Method in brief: as §1

[5] = ratio of KD for HRAS wild-type protein to KD for KRAS
[6] = ratio of KD for GDP-bound NRAS wild-type protein to KD for KRAS
[7] = ratio of KD with respect to HRAS wild-type protein to KD with respect to KRAS
[8] = ratio of KD with respect to GDP-bound NRAS wild-type protein to KD with respect to KRAS
[9] = 50% proliferation inhibitory concentration, four days
[10] = Single Cycle Kinetics, 1:1 binding model

Sequence of HRAS wild-type protein (P01112 whole entry): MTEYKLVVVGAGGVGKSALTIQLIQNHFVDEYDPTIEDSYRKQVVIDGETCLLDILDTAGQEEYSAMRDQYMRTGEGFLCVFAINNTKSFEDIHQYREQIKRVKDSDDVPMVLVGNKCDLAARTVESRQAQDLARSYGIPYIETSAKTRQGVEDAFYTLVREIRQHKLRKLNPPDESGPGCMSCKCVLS

Structure (SMILES) | HRAS /KRAS [1, 5] | NRAS /KRAS [2, 6] | pIC50 ([3]; NCI-H441 cells, 4 days) | pKd ([4]; 1:1 binding model) | pKd ([4]; Single Cycle Kinetics) | HRAS /KRAS [1, 7] | NRAS /KRAS [2, 8] | pIC50 [3, 9] | pKd [4, 10]
CCC(CC)[C@H]1C(=O)N(C)[C@H](C(=O)N(C)C)CC(=O)N(C)[C@@H](COC)C(=O)N[C@@H]([C@@H](C)CC)C(=O)N(C2CC2)CC(=O)N(C)[C@H]2C/C=C\CCN(C2=O)[C@@H](CC2CCC(F)(F)CC2)C(=O)N(C)CC(=O)N[C@@H](CCc2cc(F)c(C(F)(F)F)c(F)c2)C(=O)N2C[C@H](OC3CCCC3)C[C@H]2C(=O)NC2(CC(C)(C)C2)C(=O)N1C [PP2627] | A (a compound having 10 or more and less than 20 is denoted as A) | A (a compound having 10 or more and less than 20 is denoted as A) | 7.02 | 8.59 |  |  |  |  | 
CCCO[C@@H]1C[C@H]2C(=O)NC3(CC(C)(C)C3)C(=O)N(C)[C@@H](C3CCCC3)C(=O)N(C)[C@H](C(=O)N(C)CC)CC(=O)N(C)[C@@H](COCC)C(=O)N[C@@H]([C@@H](C)CC)C(=O)N3C[C@@H](F)C[C@H]3C(=O)N(C)[C@H]3C/C=C\CCN(C3=O)[C@@H](Cc3ccc(C(F)(F)F)cc3)C(=O)N(C)CC(=O)N[C@@H](CCc3ccc(C(F)(F)F)c(Cl)c3)C(=O)N2C1 [PP3409] | A (a compound having 10 or more and less than 20 is denoted as A) | A (a compound having 10 or more and less than 20 is denoted as A) | 7.68 |  | 9.26 |  |  |  | 
CCC[C@H]1C(=O)N[C@@H]([C@@H](C)CC)C(=O)N2CC[C@H]2C(=O)N(C)[C@H]2C/C(F)=C\CCN(C2=O)[C@@H](Cc2ccc(C)cc2)C(=O)N(C)CC(=O)N[C@@H](CCc2ccc(C(F)(F)F)c(OC)c2)C(=O)N2C[C@H](OCC)C[C@H]2C(=O)N(C)C2(CCC2)C(=O)N(C)[C@@H](C2CCCC2)C(=O)N(C)[C@H](C(=O)N(C)C)CC(=O)N1C [PP3530] | B (a compound having 3 or more and less than 10 is denoted as B) | B (a compound having 3 or more and less than 10 is denoted as B) | 8.17 |  | 9.85 |  |  |  | 
CC[C@H](C)[C@@H]1NC(=O)[C@H](COC)N(C)C(=O)C[C@@H](C(=O)N(C)C)N(C)C(=O)[C@H](C2CCCCC2)N(C)C(=O)C2(CC(C)(C)C2)NC(=O)[C@@H]2C[C@@H](OC(C)C)CN2C(=O)[C@H](CCc2cc(F)c(C(F)(F)F)c(F)c2)NC(=O)CN(C)C(=O)[C@H](Cc2ccc(C)cc2)N2CC/C=C\C[C@@H](C2=O)N(C)C(=O)CN(C)C1=O [PP2660] | A (a compound having 10 or more and less than 20 is denoted as A) | A (a compound having 10 or more and less than 20 is denoted as A) | 7.84 | 9.74 |  |  |  |  | 
CCO[C@@H]1C[C@H]2C(=O)NC3(CCC3)C(=O)N(C)[C@@H](C(CC)CC)C(=O)N(C)[C@H](C(=O)N3CCCC3)CC(=O)N(C)[C@@H](C)C(=O)N[C@@H]([C@@H](C)CC)C(=O)N(C)CC(=O)N(C)[C@H]3C/C=C\CCN(C3=O)[C@@H](CC3CCCCC3)C(=O)N(C)CC(=O)N[C@@H](CCc3cc(F)c(C(F)(F)F)c(F)c3)C(=O)N2C1 [PP1434] |  |  |  |  |  | A (a compound having 10 or more and less than 20 is denoted as A) | A (a compound having 10 or more and less than 20 is denoted as A) | 6.95 | 9.16
CCOC[C@H]1C(=O)N[C@@H]([C@@H](C)CC)C(=O)N(C2CC2)CC(=O)N(C)[C@@H]2C/C=C\CCN(C2=O)[C@@H](Cc2ccc(C)cc2)C(=O)N(C)CC(=O)N[C@@H](CCc2ccc(C(F)(F)F)c(OC)c2)C(=O)N2C[C@H](OCC)C[C@@H]2C(=O)NC2(CC(C)(C)C2)C(=O)N(C)[C@H](CC2CCC2)C(=O)N(C)[C@H](C(=O)N(C)C)CC(=O)N1C [PP2760] | B (a compound having 3 or more and less than 10 is denoted as B) | A (a compound having 10 or more and less than 20 is denoted as A) | 6.84 | 8.32 |  |  |  |  | 
CCO[C@@H]1C[C@H]2C(=O)NC3(CC(C)(C)C3)C(=O)N(C)[C@@H](C(CC)CC)C(=O)N(C)[C@H](C(=O)N(C)C)CC(=O)N(C)[C@@H](C(C)C)C(=O)N[C@@H]([C@@H](C)CC)C(=O)N(C)CC(=O)N(C)[C@H]3C/C=C\CCN(C3=O)[C@@H](CC3CCC(F)(F)CC3)C(=O)N(C)CC(=O)N[C@@H](CCc3cc(F)c(C(F)(F)F)c(F)c3)C(=O)N2C1 [PP2481] | A (a compound having 10 or more and less than 20 is denoted as A) | A (a compound having 10 or more and less than 20 is denoted as A) | 7.47 | 8.80 |  |  |  |  | 
CCCO[C@@H]1C[C@H]2C(=O)NC3(CC(C)(C)C3)C(=O)N(C)[C@@H](C3CCCC3)C(=O)N(C)[C@H](C(=O)N(C)CC)CC(=O)N(C)[C@@H](COCC)C(=O)N[C@@H]([C@@H](C)CC)C(=O)N3CCC[C@H]3C(=O)N(C)[C@H]3C/C=C\CCN(C3=O)[C@@H](Cc3ccc(C(F)(F)F)cc3)C(=O)N(C)CC(=O)N[C@@H](CCc3ccc(C(F)(F)F)c(OC)c3)C(=O)N2C1 [PP3413] | A (a compound having 10 or more and less than 20 is denoted as A) | AA (a compound having 20 or more is denoted as AA) | 7.62 |  | 9.14 |  |  |  | 
C#CC[C@H]1C(=O)N[C@@H]([C@@H](C)CC)C(=O)N(C2CC2)CC(=O)N(C)[C@H]2C/C=C\CCN(C2=O)[C@@H](Cc2ccc(C)cc2)C(=O)N(C)CC(=O)N[C@@H](CCc2ccc(C(F)(F)F)c(Cl)c2)C(=O)N2C[C@H](OCC)C[C@H]2C(=O)N(C)C2(CCC2)C(=O)N(C)[C@@H](C2CCCC2)C(=O)N(C)[C@H](C(=O)N(C)C)CC(=O)N1C [PP3251] | B (a compound having 3 or more and less than 10 is denoted as B) | B (a compound having 3 or more and less than 10 is denoted as B) | 8.39 |  | 9.92 |  |  |  | 
CCC[C@H]1C(=O)N[C@@H]([C@@H](C)CC)C(=O)N(C2CC2)CC(=O)N(C)[C@H]2C/C=C\CCN(C2=O)[C@@H](Cc2ccc(C)cc2)C(=O)N(C)CC(=O)N[C@@H](CCc2cc(F)c(C(F)(F)F)c(F)c2)C(=O)N2C[C@H](OC3CCC3)C[C@H]2C(=O)NC2(CC(C)(C)C2)C(=O)N(C)[C@@H](C2CCCC2)C(=O)N(C)[C@H](C(=O)N(C)C)CC(=O)N1C [PP2614] | A (a compound having 10 or more and less than 20 is denoted as A) | A (a compound having 10 or more and less than 20 is denoted as A) | 7.92 | 9.57 |  |  |  |  | 
CCC[C@H]1C(=O)N[C@@H]([C@@H](C)CC)C(=O)N(C)CC(=O)N(C)[C@H]2C/C=C\CCN(C2=O)[C@@H](Cc2ccc(C)cc2)C(=O)N(C)CC(=O)N[C@@H](CCc2cc(F)c(C(F)(F)F)c(F)c2)C(=O)N2CC[C@H](OC)[C@H]2C(=O)N(C)C2(CCC2)C(=O)N(C)[C@@H](C2CCCC2)C(=O)N(C)[C@H](C(=O)N(C)C)CC(=O)N1C [PP3287] | B (a compound having 3 or more and less than 10 is denoted as B) | A (a compound having 10 or more and less than 20 is denoted as A) | 8.27 |  | 10.24 |  |  |  | 
CC[C@H](C)[C@@H]1NC(=O)[C@H](CC)N(C)C(=O)C[C@@H](C(=O)N(C)C)N(C)C(=O)[C@H](C2CCCC2)N(C)C(=O)C2(CCC2)NC(=O)[C@@H]2CCCN2C(=O)[C@H](CCc2cc(F)c(C(F)(F)F)c(F)c2)NC(=O)CN(C)C(=O)[C@H](Cc2ccc(C(F)(F)F)cc2)N2CC/C=C\C[C@@H](C2=O)N(C)C(=O)CN(C)C1=O [PP1135] |  |  |  |  |  | A (a compound having 10 or more and less than 20 is denoted as A) | A (a compound having 10 or more and less than 20 is denoted as A) | 7.36 | 10.03
